For the test, the target named is T1, human DP2 receptor (Homo sapiens, UniProt Q9Y5Y4).
T1 construct: expressed in transfected cells
T1 sequence (Q9Y5Y4 1-395): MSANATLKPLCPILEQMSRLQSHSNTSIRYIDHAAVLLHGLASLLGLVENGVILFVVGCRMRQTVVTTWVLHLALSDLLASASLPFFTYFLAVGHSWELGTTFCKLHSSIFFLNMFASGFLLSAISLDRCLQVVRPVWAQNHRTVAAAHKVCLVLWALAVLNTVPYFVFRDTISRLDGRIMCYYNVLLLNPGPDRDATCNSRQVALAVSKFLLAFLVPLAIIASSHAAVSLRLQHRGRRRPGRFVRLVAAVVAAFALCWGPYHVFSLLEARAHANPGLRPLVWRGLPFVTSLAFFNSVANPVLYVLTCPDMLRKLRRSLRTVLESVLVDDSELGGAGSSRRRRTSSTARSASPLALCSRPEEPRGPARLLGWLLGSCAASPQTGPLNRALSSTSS
Kind of test: DP2/CRTH2 binding assay (radioligand binding using [3H]PGD2). The following applies: [3H]PGD2, membranes of HEK293 cells stably expressing recombinant human DP2; read-out: hDP2 binding. The protocol: The ability of a compound to bind to the human DP2 receptor is assessed via a radioligand binding assay using [^3H]PGD2. HEK293 cells stably expressing recombinant human DP2 are resuspended in 10 mM Hepes, 7.4 containing 1 mM DTT, lysed and centrifuged at 75,000×g to pellet the membranes. The membranes are resuspended in 10 mM Hepes, 7.4 containing 1 mM DTT and 10% glycerol to approximately 5 mg protein/ml. Membranes (2-10 μg protein/well) are incubated in 96-well plates with 1 nM [^3H]PGD2 and test compound in Assay Buffer (50 mM Hepes, 10 mM MnCl2, 1 mM EDTA, plus or minus 0.2% human serum albumin, pH 7.4) for 60 minutes at room temperature. The reactions are terminated by rapid filtration through Whatman GF/C glass fibre filter plates. The filter plates were pre-soaked in 0.33% polythylenimine for 30 minutes at room temperature then washed in Wash Buffer (50 mM Hepes, 0.5 M NaCl pH 7.4) prior to harvesting. After harvesting, the filter plates are washed 3 times with 1 ml cold Wash Buffer then dried. Scintillant is then added to the plates and the radioactivity retained on the filters is determined on a Packard TopCount (Perkin Elmer). Specific binding is determined as total radioactive binding minus non-specific binding in the presence of 10 μM PGD2. IC50s were determined using GraphPad prism analysis of drug titration curves.
As for `COc1ccc(CC(=O)O)cc1-c1ccc(C(F)(F)F)cc1CN1CCOC1=O` [Compound 1-1, [6-Methoxy-2′-(2-oxo-oxazolidin-3-ylmethyl)-4′-trifluoromethyl-biphenyl-3-yl]-acetic acid], the IC50 is less than 0.3 µM. With `COc1ccc(-c2ccc(C(F)(F)F)cc2CN2CCOC2=O)cc1CC(=O)O` [Compound 1-2, [4-Methoxy-2′-(2-oxo-oxazolidin-3-ylmethyl)-4′-trifluoromethyl-biphenyl-3-yl]-acetic acid], the IC50 is less than 0.3 µM. As for `COc1ccc(CC(=O)O)cc1-c1ccccc1CN1C(=O)O[C@H](c2ccccc2)[C@@H]1C` [Compound 1-3, [6-Methoxy-2′-((4S,5R)-4-methyl-2-oxo-5-phenyl-oxazolidin-3-ylmethyl)-biphenyl-3-yl]-acetic acid], the IC50 was in the range of 0.3 to 1 µM.

As for `COc1ccc(CC(=O)O)cc1-c1ccc(F)cc1CN1C(=O)O[C@H](c2ccccc2)[C@@H]1C` [Compound 1-4, [4′-Fluoro-6-methoxy-2′-((4S,5R)-4-methyl-2-oxo-5-phenyl-oxazolidin-3-ylmethyl)-biphenyl-3-yl]-acetic acid], the IC50 is less than 0.3 µM. With `COc1ccc(-c2cc(CC(=O)O)ccc2OC)c(CN2C(=O)O[C@H](c3ccccc3)[C@@H]2C)c1` [Compound 1-5, [6,4′-Dimethoxy-2′-((4S,5R)-4-methyl-2-oxo-5-phenyl-oxazolidin-3-ylmethyl)-biphenyl-3-yl]-acetic acid] the figure was greater than 1 µM; with `C[C@H]1[C@@H](c2ccccc2)OC(=O)N1Cc1cc(C(F)(F)F)ccc1-c1cccc(CC(=O)O)c1` [Compound 1-6, [2′-((4S,5R)-4-Methyl-2-oxo-5-phenyl-oxazolidin-3-ylmethyl)-4′-trifluoromethyl-biphenyl-3-yl]-acetic acid], 0.3 to 1 µM; with `C[C@H]1[C@@H](c2ccccc2)OC(=O)N1Cc1cc(C(F)(F)F)ccc1-c1ccc(F)c(CC(=O)O)c1` [Compound 1-7, [4-Fluoro-2′-((4S,5R)-4-methyl-2-oxo-5-phenyl-oxazolidin-3-ylmethyl)-4′-trifluoromethyl-biphenyl-3-yl]-acetic acid], 0.3 to 1 µM.

For `COc1ccc(-c2ccc(C(F)(F)F)cc2CN2C(=O)O[C@H](c3ccccc3)[C@@H]2C)cc1CC(=O)O` [Compound 1-8, [4-Methoxy-2′-((4S,5R)-4-methyl-2-oxo-5-phenyl-oxazolidin-3-ylmethyl)-4′-trifluoromethyl-biphenyl-3-yl]-acetic acid], the IC50 was less than 0.3 µM.

For `C[C@H]1[C@@H](c2ccccc2)OC(=O)N1Cc1cc(C(F)(F)F)ccc1-c1cc(CC(=O)O)ccc1F` [Compound 1-9, [6-Fluoro-2′-((4S,5R)-4-methyl-2-oxo-5-phenyl-oxazolidin-3-ylmethyl)-4′-trifluoromethyl-biphenyl-3-yl]-acetic acid], the IC50 was less than 0.3 µM. For the molecule `COc1ccc(CC(=O)O)cc1-c1ccc(C(F)(F)F)cc1CN1C(=O)O[C@H](c2ccccc2)[C@@H]1C` [Compound 1-10, [6-Methoxy-2′-((4S,5R)-4-methyl-2-oxo-5-phenyl-oxazolidin-3-ylmethyl)-4′-trifluoromethyl-biphenyl-3-yl]-acetic acid], the IC50 is less than 0.3 µM. For the molecule `COc1ccc(CC(=O)O)cc1-c1ccc(C(F)(F)F)cc1CN1C(=O)O[C@@H](c2ccccc2)[C@H]1C` [Compound 1-11, [6-Methoxy-2′-((4R,5S)-4-methyl-2-oxo-5-phenyl-oxazolidin-3-ylmethyl)-4′-trifluoromethyl-biphenyl-3-yl]-acetic acid], the IC50 is greater than 1 µM. For the molecule `COc1ccc(C(C)C(=O)O)cc1-c1ccc(C(F)(F)F)cc1CN1C(=O)O[C@H](c2ccccc2)[C@@H]1C` (stereo partly drawn) [Compound 1-12, 2-[6-Methoxy-2′-((4S,5R)-4-methyl-2-oxo-5-phenyl-oxazolidin-3-ylmethyl)-4′-trifluoromethyl-biphenyl-3-yl]-propionic acid], the IC50 is less than 0.3 µM.

Turning to `COc1ccc(CC(=O)O)cc1-c1ccc(C(F)(F)F)cc1CN1C(=O)O[C@H](c2cc(C(F)(F)F)cc(C(F)(F)F)c2)[C@@H]1C` [Compound 1-13, {2′-[(4S,5R)-5-(3,5-Bis-trifluoromethyl-phenyl)-4-methyl-2-oxo-oxazolidin-3-ylmethyl]-6-methoxy-4′-trifluoromethyl-biphenyl-3-yl}-acetic acid], the IC50 is less than 0.3 µM. On to `CCOc1ccc(CC(=O)O)cc1-c1ccc(C(F)(F)F)cc1CN1C(=O)O[C@H](c2ccccc2)[C@@H]1C` [Compound 1-14, [6-Ethoxy-2′-((4S,5R)-4-methyl-2-oxo-5-phenyl-oxazolidin-3-ylmethyl)-4′-trifluoromethyl-biphenyl-3-yl]-acetic acid], for which the IC50 is less than 0.3 µM. For `C[C@H]1[C@@H](c2ccccc2)OC(=O)N1Cc1cc(C(F)(F)F)ccc1-c1cc(CC(=O)O)ccc1OCC1CC1` [Compound 1-15, [6-Cyclopropylmethoxy-2′-((4S,5R)-4-methyl-2-oxo-5-phenyl-oxazolidin-3-ylmethyl)-4′-trifluoromethyl-biphenyl-3-yl]-acetic acid] the value was less than 0.3 µM; for `C[C@H]1[C@@H](c2ccccc2)OC(=O)N1Cc1cc(C(F)(F)F)ccc1-c1cc(CC(=O)O)ccc1OCC(=O)O` [Compound 1-16, [6-Carboxymethoxy-2′-((4S,5R)-4-methyl-2-oxo-5-phenyl-oxazolidin-3-ylmethyl)-4′-trifluoromethyl-biphenyl-3-yl]-acetic acid], 0.3 to 1 µM. In the case of `C[C@H]1[C@@H](c2ccccc2)OC(=O)N1Cc1cc(C(F)(F)F)ccc1-c1cc(CC(=O)O)ccc1OCc1ccccc1` [Compound 1-17, [6-Benzyloxy-2′-((4S,5R)-4-methyl-2-oxo-5-phenyl-oxazolidin-3-ylmethyl)-4′-trifluoromethyl-biphenyl-3-yl]-acetic acid], the IC50 was less than 0.3 µM. With `C[C@H]1[C@@H](c2ccccc2)OC(=O)N1Cc1cc(C(F)(F)F)ccc1-c1cc(CC(=O)O)ccc1OCc1ccc(Cl)cc1` [Compound 1-18, [6-(4-Chloro-benzyloxy)-2′-((4S,5R)-4-methyl-2-oxo-5-phenyl-oxazolidin-3-ylmethyl)-4′-trifluoromethyl-biphenyl-3-yl]-acetic acid] the figure was less than 0.3 µM; with `C[C@H]1[C@@H](c2ccccc2)OC(=O)N1Cc1cc(C(F)(F)F)ccc1-c1cc(CC(=O)O)ccc1-c1ccccc1` [Compound 1-19, [2″-((4S,5R)-4-Methyl-2-oxo-5-phenyl-oxazolidin-3-ylmethyl)-4″-trifluoromethyl-[1,1′;2′,1″]terphenyl-4′-yl]-acetic acid], less than 0.3 µM; with `C[C@H]1[C@@H](c2ccccc2)OC(=O)N1Cc1cc(C(F)(F)F)ccc1-c1cc(CC(=O)O)ccc1-c1cccnc1` [Compound 1-20, [2′-((4S,5R)-4-Methyl-2-oxo-5-phenyl-oxazolidin-3-ylmethyl)-6-pyridin-3-yl-4′-trifluoromethyl-biphenyl-3-yl]-acetic acid], less than 0.3 µM. In the case of `C[C@H]1[C@@H](c2ccccc2)OC(=O)N1Cc1cc(C(F)(F)F)ccc1-c1cc(CC(=O)O)ccc1-c1cnn(C)c1` [Compound 1-21, [2′-((4S,5R)-4-Methyl-2-oxo-5-phenyl-oxazolidin-3-ylmethyl)-6-(1-methyl-1H-pyrazol-4-yl)-4′-trifluoromethyl-biphenyl-3-yl]-acetic acid], the IC50 was 0.3 to 1 µM. For `COc1ccc(CC(=O)O)cc1-c1ccc(C(F)(F)F)cc1CN1C(=O)NC(C)(c2ccccc2)C1=O` (stereo not shown) [Compound 2-1, [6-Methoxy-2′-(4-methyl-2,5-dioxo-4-phenyl-imidazolidin-1-ylmethyl)-4′-trifluoromethyl-biphenyl-3-yl]-acetic acid] the value was greater than 1 µM; for `COc1ccc(CC(=O)O)cc1-c1ccc(C(F)(F)F)cc1CN1C(=O)N(CC(=O)O)C(C)(c2ccccc2)C1=O` (stereo not shown) [Compound 2-2, [2′-(3-Carboxymethyl-4-methyl-2,5-dioxo-4-phenyl-imidazolidin-1-ylmethyl)-6-methoxy-4′-trifluoromethyl-biphenyl-3-yl]-acetic acid], greater than 1 µM. With `COc1ccc(CC(=O)O)cc1-c1ccc(C(F)(F)F)cc1CN1CCN=C1C` [Compound 3-1, [6-Methoxy-2′-(2-methyl-4,5-dihydro-imidazol-1-ylmethyl)-4′-trifluoromethyl-biphenyl-3-yl]-acetic acid] the figure was greater than 1 µM; with `O=C(O)CCn1c2c(c3ccccc31)C[C@H](NS(=O)(=O)c1ccc(F)cc1)CC2` [Ramatroban, reference compound], 0.3 to 1 µM.

The values above are taken from patent US8497381B2, “Antagonists of prostaglandin D2 receptors” (Panmira Pharmaceuticals, LLC, priority 2008, dated 2013).
